{"source": "patent US20250179589A1", "about": "“SYNTHETIC LETHALITY AND THE TREATMENT OF CANCER” (PACYLEX PHARMACEUTICALS INC., priority 2012, published 2025)", "key": {"[1]": {"test_system": "Mcl-1 levels in IM9, KMH2, Ramos, BL2 cells", "assay": "Western blot of protein levels after MG-132 treatment", "type": "cell-based, human", "details": "all cell types, 10 μM, 5 h", "description": "(§1) IM9, KMH2, BL2 and Ramos cells were plated (3×10^6 cells per well in a 6-well dish) and treated with 10 μM MG-132 for 5 hours. Equal amount of DMSO was added to the control samples. Cells were then lysed and subjected to SDS-PAGE/Western blot analyses.\n(§2) In this example, in FIG. 26, it is shown that proteosomal degradation is not the cause of NMT2 depletion in BL cells. In these experiments, “Normal” immortalized B lymphocytes (IM9) and malignant B lymphoma cells [Hodgkin's lymphoma (KMH2) and BL (Ramos, BL2)] treated with 10 μM of proteosomal inhibitor (MG-132) for 5 h. Western blotting was performed on cell lysates to monitor levels of NMT1, NMT2, Mcl-1, and GAPDH.\n(§3) To investigate whether NMT2's degradation was increased as a result of a destabilizing mutation or the presence of an unknown factor that could destabilize NMT2 in cancer cells, we treated normal and malignant lymphocytes with the proteosomal degradation inhibitor MG-132 for 5 h. Cell lysates were subjected to western blotting to analyze the presence of NMT1, NMT2 and myeloid cell leukemia-1 protein (Mcl-1), which was used as a control to check the effectiveness of MG-132 since it is subject to proteosomal degradation."}, "[2]": {"test_system": "NMT2 levels in BL cells (Ramos, BL2)", "assay": "Western blot of protein levels after MG-132 treatment", "type": "cell-based, human", "details": "10 μM, 5 h", "description": "as §1, §2, §3"}, "[3]": {"test_system": "BL-2 (Burkitt's lymphoma) cells", "assay": "Trypan blue exclusion cell viability assay", "type": "cell-based, human", "details": "BL-2, 24 hours, compared with L0 and CEM cells", "description": "(§4) Cell viability assay. B and T cell viability was measured using the trypan blue exclusion method. Cells were grown in confluency conditions (2×10^6 cells/mL maximum) assuring the minimum basal apoptosis. […] Cell viability was quantified using the TC10™ automated cell counter (Biorad).\n(§5) The drugs were dissolved in DMSO to make 100× stock solutions for each concentration tested, so that the final volume of DMSO in each well was 1%.\n(§6) Cell viability was then quantified using the TC10™ automated cell counter (Biorad)."}, "[4]": {"test_system": "Ramos (Burkitt's lymphoma) cells", "assay": "Trypan blue exclusion cell viability assay", "type": "cell-based, human", "details": "24 hours, compared with L0 and CEM cells", "description": "as §4, §5, §6"}, "[5]": {"molecular_target": "T1, NMT1 (Homo sapiens, UniProt P30419)", "T1 construct": "We generated His-tagged full-length (His-NMT1 and His-NMT2) and caspase truncated (His-73NMT1, His-26NMT2 and His-68NMT2) human NMT vectors; His6 (N); made in house; host or cells: E. coli Lemo21(DE3) pLysS", "T1 sequence (P30419 whole entry, the tested form may be a part)": "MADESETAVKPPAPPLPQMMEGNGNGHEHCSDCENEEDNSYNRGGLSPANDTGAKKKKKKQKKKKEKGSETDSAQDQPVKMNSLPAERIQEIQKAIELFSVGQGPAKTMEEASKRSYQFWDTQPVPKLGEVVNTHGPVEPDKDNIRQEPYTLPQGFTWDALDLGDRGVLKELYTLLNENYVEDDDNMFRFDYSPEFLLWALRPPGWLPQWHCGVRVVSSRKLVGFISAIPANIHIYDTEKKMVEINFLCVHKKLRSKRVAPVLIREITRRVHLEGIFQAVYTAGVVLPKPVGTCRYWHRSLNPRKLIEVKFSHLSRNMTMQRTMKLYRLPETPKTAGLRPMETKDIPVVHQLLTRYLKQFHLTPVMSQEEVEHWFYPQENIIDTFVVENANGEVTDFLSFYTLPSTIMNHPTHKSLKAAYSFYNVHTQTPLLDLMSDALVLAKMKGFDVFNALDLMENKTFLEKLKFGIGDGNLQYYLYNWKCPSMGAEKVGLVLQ", "assay": "In vitro NMT activity (peptide myristoylation) assay", "type": "biochemical", "from_the_text": "(§7) In vitro NMT activity assay. N-myristoyltransferase activity assay protocol was adapted from Raju, R. V., and Sharma, R. K. (1999) Preparation and assay of myristoyl-CoA:protein N-myristoyltransferase. Methods Mol Biol 116, 193-211. [^3H] myristoyl-CoA was freshly synthesized for each experiment, as previously described by Towler, D., and Glaser, L. (1986) Protein fatty acid acylation: enzymatic synthesis of an N-myristoylglycyl peptide. Proc Nat Acad Sci USA 83, 2812-2816. Briefly, cells were resuspended in 0.25 M sucrose buffer (50 mM NaH2PO4, pH 7.4) and subjected to 2 rounds of sonication at level 6.0 on a Branson Sonicator. Reaction mixture is composed of 10 μL of cell extract (about 20 μg of proteins) incubated in NMT activity buffer (0.26M Tris-HCl, 3.25 mM EGTA, 2.92 mM EDTA and 29.25 mM 2-mercaptoethanol, 1% Triton X-100, pH 7.4) and myristoylable or non-myristoylable decapeptide corresponding to the N-terminal sequence of truncated-Bid (0.1 mM dissolved in water). Reaction was started by the addition of 7.4 μL (≈10 pMol) of freshly synthesized [^3H] myristoyl-CoA (final mixture volume=25 μL) and incubated for 15 min at 30° C. The reaction is stopped by spotting 15 μL of the reaction mixture on a P81 phosphocellulose paper disc (Whatman, Kent, UK) and dried for 30 seconds. Discs were washed (washing buffer: 25 mM Tris buffer, pH 7.4) to remove the residual radioactivity ([^3H]-myristate and [^3H]-myristoyl-CoA) while [^3H]-myristoyl-peptide is retained on the phosphocellulose paper. Radioactivity was quantified by liquid scintillation counting and converted into pMol of myristoylated peptide (Raju, R. V., and Sharma, R. K. (1999) Preparation and assay of myristoyl-CoA:protein N-myristoyltransferase. Methods Mol Biol 116, 193-211\n(§8) NMT activity was assayed using a peptide myristoylation assay with purified recombinant NMT1 and NMT2. NMT activity was calculated from the amount of radiolabeled myristoylpeptide produced and detected on phosphocellulose paper (adapted from King et al. 1991, Anal Biochem.).\n(§9) In this example, in FIG. 10, the sensitivity of various immortalized normal LO B lymphocytes (obtained from Dr. Riabowol, U. of Calgary), malignant B lymphoma cells (Ramos and BL2), and, T cell leukemia (CEM) is shown to the NMT inhibitor TrisDBA for 24 hours (A) Residual viability of various cell lines treated with TrisDBA for 24 hours (n=9) (B) Effect of TrisDBA on N-myristoyltransferase activity in COS7 cells transiently expressing NMT1 or NMT2 incubated for 24 h with TrisDBA. In vitro the IC50 for TrisDBA is approximately 2 μM for NMT1 and 5 μM for NMT2."}, "[6]": {"molecular_target": "T2, NMT2 (Homo sapiens, UniProt O60551)", "T2 construct": "We generated His-tagged full-length (His-NMT1 and His-NMT2) and caspase truncated (His-73NMT1, His-26NMT2 and His-68NMT2) human NMT vectors; His6 (N); made in house; host or cells: E. coli Lemo21(DE3) pLysS", "T2 sequence (O60551 whole entry, the tested form may be a part)": "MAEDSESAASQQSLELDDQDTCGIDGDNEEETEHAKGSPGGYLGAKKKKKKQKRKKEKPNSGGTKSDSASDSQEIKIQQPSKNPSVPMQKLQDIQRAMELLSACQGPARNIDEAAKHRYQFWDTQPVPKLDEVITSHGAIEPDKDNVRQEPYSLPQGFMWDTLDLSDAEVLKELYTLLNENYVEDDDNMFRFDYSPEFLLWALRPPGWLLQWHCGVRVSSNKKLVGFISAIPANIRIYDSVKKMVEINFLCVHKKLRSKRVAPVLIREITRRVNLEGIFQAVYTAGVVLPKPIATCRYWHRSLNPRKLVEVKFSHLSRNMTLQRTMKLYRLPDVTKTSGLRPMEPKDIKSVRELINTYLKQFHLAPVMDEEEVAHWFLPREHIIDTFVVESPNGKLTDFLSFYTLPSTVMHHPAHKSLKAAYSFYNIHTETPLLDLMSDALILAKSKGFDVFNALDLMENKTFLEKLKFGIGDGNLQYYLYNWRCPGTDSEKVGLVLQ", "assay": "In vitro NMT activity (peptide myristoylation) assay", "type": "biochemical", "from_the_text": "as §7, §8, §9"}, "[7]": {"test_system": "Ramos B lymphoma cells transfected with pcDNA3.1-V5-NMT2", "assay": "Survival of NMT2-transfected Ramos cells, trypan blue exclusion", "type": "cell-based, human", "details": "TrisDBA 5 ug/ml, 24 hours", "description": "as §4"}, "[8]": {"test_system": "NMT1 levels in IM9, Ramos, BL2 cells", "assay": "Western blot of protein levels after SAHA treatment", "type": "cell-based, human", "details": "1 μM, 24 h", "description": "(§10) IM9, BL2 and Ramos cells were plated at 3×10^6 cells per well in a 6-well dish and treated with 1 μM suberoylanilide hydroxamic acid (SAHA), which is a reversible inhibitor of class I and class II histone deacetylases (HDACs), for 24 hours. Equal amount of DMSO was added to cells as a control. Cells were lysed and subjected to SDS-PAGE/Western blot analyses.\n(§11) To test whether the reduction in mRNA NMT2 was due to chromatin silencing, we treated “normal” B cells (IM9) and malignant BL cells with suberoylanilide hydroxamic acid (SAHA) (also named vorinostat), a class I and class II histone deacetylase inhibitor, for 24 hours and monitored the levels of NMT1 and NMT2 by western blot. In particular, “Normal” B cells (IM9) and malignant BL cells (Ramos, BL2) treated with 1 μM SAHA (HDAC class I/II inhibitor) for 24 h. Cells were then lysed, subjected to SDS-PAGE and western blotting was performed with NMT1, NMT2, p21/WAF1 and GAPDH antibodies."}, "[9]": {"test_system": "NMT2 levels in BL cells (Ramos, BL2)", "assay": "Western blot of protein levels after SAHA treatment", "type": "cell-based, human", "details": "1 μM, 24 h", "description": "as §10, §11"}, "[10]": {"test_system": "p21/WAF1 levels in IM9, Ramos, BL2 cells", "assay": "Western blot of protein levels after SAHA treatment", "type": "cell-based, human", "details": "all cells, 1 μM, 24 h", "description": "as §10, §11"}}, "note": "pIC50: −log10 of the molar value. Residues, ends and D or L forms follow the SMILES beside them. *: point of attachment. Cbz = O=C(OCc1ccccc1)*", "data": [{"compound": "CC(C)C[C@@H](C=O)NC(=O)[C@H](CC(C)C)NC(=O)[C@H](CC(C)C)NC(=O)OCc1ccccc1", "note": "[MG-132] (Cbz-Leu-Leu-Leu-aldehyde)", "values": [{"measurement": "Mcl-1 levels", "setting": "[1]", "value": "increased levels of Mcl-1"}, {"measurement": "NMT2 levels", "setting": "[2]", "value": "did not increase"}]}, {"compound": "tris-dibenzylideneacetone-dipalladium [TrisDBA]", "values": [{"measurement": "sensitivity (residual viability)", "setting": "[3]", "value": "more sensitive"}, {"measurement": "sensitivity (residual viability)", "setting": "[4]", "value": "more sensitive"}, {"measurement": "pIC50", "setting": "[5]; NMT1, in vitro", "value": "~5.70"}, {"measurement": "inhibition of NMT activity", "setting": "[5]; purified recombinant NMT1", "value": "inhibits NMT in vitro"}, {"measurement": "pIC50", "setting": "[6]; NMT2, in vitro", "value": "~5.30"}, {"measurement": "inhibition of NMT activity", "setting": "[6]; purified recombinant NMT2", "value": "inhibits NMT in vitro"}, {"measurement": "increase of survival by NMT2 transfection vs control cells transfected with empty plasmid vector", "setting": "[7]", "value": 2.5, "unit": "fold"}]}, {"compound": "O=C(CCCCCCC(=O)Nc1ccccc1)NO", "note": "[SAHA, suberoylanilide hydroxamic acid]", "values": [{"measurement": "NMT1 levels", "setting": "[8]", "value": "remained relatively unchanged"}, {"measurement": "NMT2 levels", "setting": "[9]", "value": "increased NMT2 levels"}, {"measurement": "p21/WAF1 levels", "setting": "[10]", "value": "increased p21/WAF1 levels"}]}]}
